In PubChem BioAssay AID1259407 (Chemical Carcinogenesis Research Information System (CCRIS), 2018):
The source made the active and inactive calls. How the calls were made is not given here.

System: CCRIS mutagenicity, Ames/micronucleus/aberration tests
Assay: CCRIS mutagenicity studies
[1] = Test System: AMES SALMONELLA TYPHIMURIUM, Strain/Indicator: TA98, Metabolic Activation: NONE, Method: STANDARD PLATE
[2] = Test System: AMES SALMONELLA TYPHIMURIUM, Strain/Indicator: TA100, Metabolic Activation: NONE, Method: STANDARD PLATE
[3] = Test System: AMES SALMONELLA TYPHIMURIUM, Strain/Indicator: TA98, Metabolic Activation: NONE, Method: PREINCUBATION
[4] = Test System: AMES SALMONELLA TYPHIMURIUM, Strain/Indicator: TA100, Metabolic Activation: NONE, Method: PREINCUBATION

## [Cl][Rh-2]([Cl])([Cl])([Cl])[Cl]
Test System: AMES SALMONELLA TYPHIMURIUM, Strain/Indicator: TA97A, Metabolic Activation: NONE, Method: STANDARD PLATE
  mutagenic call: inactive; negative
Test System: AMES SALMONELLA TYPHIMURIUM, Strain/Indicator: TA97A, Metabolic Activation: RAT, LIVER, S-9, PHENOBARBITAL AND 5,6-BENZOFLAVONE, Method: STANDARD PLATE
  mutagenic call: active; positive
Test System: AMES SALMONELLA TYPHIMURIUM, Strain/Indicator: TA97A, Metabolic Activation: RAT, LIVER, S-9, PHENOBARBITAL AND BETA-NAPHTHOFLAVONE, Method: STANDARD PLATE
  mutagenic call: active; positive
[1]
  mutagenic call: active; positive
Test System: AMES SALMONELLA TYPHIMURIUM, Strain/Indicator: TA98, Metabolic Activation: RAT, LIVER, S-9, PHENOBARBITAL AND 5,6-BENZOFLAVONE, Method: STANDARD PLATE
  mutagenic call: active; positive
Test System: AMES SALMONELLA TYPHIMURIUM, Strain/Indicator: TA98, Metabolic Activation: RAT, LIVER, S-9, PHENOBARBITAL AND BETA-NAPHTHOFLAVONE, Method: STANDARD PLATE
  mutagenic call: active; positive
[2]
  mutagenic call: inactive; negative
Test System: AMES SALMONELLA TYPHIMURIUM, Strain/Indicator: TA100, Metabolic Activation: RAT, LIVER, S-9, PHENOBARBITAL AND 5,6-BENZOFLAVONE, Method: STANDARD PLATE
  mutagenic call: active; positive
Test System: AMES SALMONELLA TYPHIMURIUM, Strain/Indicator: TA100, Metabolic Activation: RAT, LIVER, S-9, PHENOBARBITAL AND BETA-NAPHTHOFLAVONE, Method: STANDARD PLATE
  mutagenic call: active; positive
Test System: AMES SALMONELLA TYPHIMURIUM, Strain/Indicator: TA102, Metabolic Activation: NONE, Method: STANDARD PLATE
  mutagenic call: active; positive
Test System: AMES SALMONELLA TYPHIMURIUM, Strain/Indicator: TA102, Metabolic Activation: RAT, LIVER, S-9, PHENOBARBITAL AND 5,6-BENZOFLAVONE, Method: STANDARD PLATE
  mutagenic call: active; positive
Test System: AMES SALMONELLA TYPHIMURIUM, Strain/Indicator: TA102, Metabolic Activation: RAT, LIVER, S-9, PHENOBARBITAL AND BETA-NAPHTHOFLAVONE, Method: STANDARD PLATE
  mutagenic call: active; positive

## C/C=C\C(=O)O[C@@H]1C[C@H]2O[C@@H]3C=C(C)C(=O)C[C@]3(C)[C@]1(C)[C@]21CO1
[3]
  mutagenic call: inactive; negative
Test System: AMES SALMONELLA TYPHIMURIUM, Strain/Indicator: TA98, Metabolic Activation: RAT, LIVER, S-9, AROCLOR 1254, Method: PREINCUBATION
  mutagenic call: inactive; negative
[4]
  mutagenic call: inactive; negative
Test System: AMES SALMONELLA TYPHIMURIUM, Strain/Indicator: TA100, Metabolic Activation: RAT, LIVER, S-9, AROCLOR 1254, Method: PREINCUBATION
  mutagenic call: inactive; negative

## O=[N+]([O-])c1ccc(-c2csc(Cl)n2)o1
Test System: E. COLI, Strain/Indicator: WP2, Metabolic Activation: NONE, Method: SPOT
  mutagenic call: active; positive
Test System: E. COLI, Strain/Indicator: WP2 UVRA, Metabolic Activation: NONE, Method: SPOT
  mutagenic call: active; positive

## CCOP(=O)(NC(C)C)Oc1ccccc1C(=O)OC(C)C (stereo unspecified)
[1]
  mutagenic call: active; positive
Test System: AMES SALMONELLA TYPHIMURIUM, Strain/Indicator: TA98, Metabolic Activation: RAT, LIVER, S-9, Method: STANDARD PLATE
  mutagenic call: active; positive
[2]
  mutagenic call: inactive; negative
Test System: AMES SALMONELLA TYPHIMURIUM, Strain/Indicator: TA100, Metabolic Activation: RAT, LIVER, S-9, Method: STANDARD PLATE
  mutagenic call: inactive; negative

## CCOS(=O)(=O)OCC
End Point: IN VITRO CHROMOSOMAL ABERRATIONS, Test System: CHL CELLS, Metabolic Activation: RAT, LIVER, S-9, SODIUM PHENOBARBITAL AND 5,6-BENZOFLAVONE
  mutagenic call: active; positive (structural changes)
End Point: In vitro micronucleus, Test System: Chinese Hamster Ovary (CHO-WBL) cells, Metabolic Activation: None
  mutagenic call: active; positive (p<0.01)
[3]
  mutagenic call: active; positive
Test System: AMES SALMONELLA TYPHIMURIUM, Strain/Indicator: TA98, Metabolic Activation: RAT LIVER S-9, PHENOBARBITAL AND BETA-NAPHTHOFLAVONE, Method: PREINCUBATION
  mutagenic call: active; positive
[4]
  mutagenic call: active; positive
[2]
  mutagenic call: active; positive
Test System: AMES SALMONELLA TYPHIMURIUM, Strain/Indicator: TA100, Metabolic Activation: RAT LIVER S-9, PHENOBARBITAL AND BETA-NAPHTHOFLAVONE, Method: PREINCUBATION
  mutagenic call: active; positive
Test System: AMES SALMONELLA TYPHIMURIUM, Strain/Indicator: TA1535, Metabolic Activation: NONE, Method: PREINCUBATION
  mutagenic call: active; positive
Test System: AMES SALMONELLA TYPHIMURIUM, Strain/Indicator: TA1535, Metabolic Activation: NONE, Method: STANDARD PLATE
  mutagenic call: active; positive
Test System: AMES SALMONELLA TYPHIMURIUM, Strain/Indicator: TA1535, Metabolic Activation: RAT LIVER S-9, PHENOBARBITAL AND BETA-NAPHTHOFLAVONE, Method: PREINCUBATION
  mutagenic call: active; positive
Test System: AMES SALMONELLA TYPHIMURIUM, Strain/Indicator: TA1537, Metabolic Activation: NONE, Method: PREINCUBATION
  mutagenic call: active; positive
Test System: AMES SALMONELLA TYPHIMURIUM, Strain/Indicator: TA1537, Metabolic Activation: RAT LIVER S-9, PHENOBARBITAL AND BETA-NAPHTHOFLAVONE, Method: PREINCUBATION
  mutagenic call: active; positive
Test System: CHINESE HAMSTER OVARY, Strain/Indicator: CHO-K1-BH4 (HGPRT), Metabolic Activation: NONE, Method: STANDARD PLATE
  mutagenic call: active; positive
Test System: CHINESE HAMSTER V-79, Strain/Indicator: V-79/6-THIOGUANINE, Metabolic Activation: NONE, Method: FLASK ASSAY
  mutagenic call: active; positive
Test System: E.COLI, Strain/Indicator: WP2UVRA, Metabolic Activation: NONE, Method: PREINCUBATION
  mutagenic call: active; positive
Test System: E.COLI, Strain/Indicator: WP2UVRA, Metabolic Activation: RAT LIVER S-9, PHENOBARBITAL AND BETA-NAPHTHOFLAVONE, Method: PREINCUBATION
  mutagenic call: active; positive

## [Ag]
End Point: In vivo micronucleus, Test System: Bone marrow polychromatic erythrocytes, Species: Rat, Strain/Sex: Sprague-Dawley/Male and Female, Route: Oral
  mutagenic call: inactive; negative

## CN(C)c1ccc(/C=C/c2ccc([N+](=O)[O-])cc2)cc1
Test System: AMES SALMONELLA TYPHIMURIUM, Strain/Indicator: TA98, Metabolic Activation: HAMSTER, LIVER, S-9, AROCLOR 1254 (10%), Method: STANDARD PLATE
  mutagenic call: active; positive
[1]
  mutagenic call: inactive; negative
Test System: AMES SALMONELLA TYPHIMURIUM, Strain/Indicator: TA98, Metabolic Activation: RAT, LIVER, S-9, AROCLOR 1254 (10%), Method: STANDARD PLATE
  mutagenic call: active; positive
Test System: AMES SALMONELLA TYPHIMURIUM, Strain/Indicator: TA100, Metabolic Activation: HAMSTER, LIVER, S-9, AROCLOR 1254 (10%), Method: STANDARD PLATE
  mutagenic call: active; positive
[2]
  mutagenic call: inactive; negative
Test System: AMES SALMONELLA TYPHIMURIUM, Strain/Indicator: TA100, Metabolic Activation: RAT, LIVER, S-9, AROCLOR 1254 (10%), Method: STANDARD PLATE
  mutagenic call: active; positive
Test System: MOUSE LYMPHOMA, Strain/Indicator: L5178Y (TK+/TK-), Metabolic Activation: NONE, Method: SUSPENSION/PLATE
  mutagenic call: inactive; negative
Test System: MOUSE LYMPHOMA, Strain/Indicator: L5178Y (TK+/TK-), Metabolic Activation: RAT, LIVER, S-9, AROCLOR 1254, Method: SUSPENSION/PLATE
  mutagenic call: active; positive. reevaluation of results: positive

## Cn1c2c3ccccc3nc-2cc2ccccc21
End Point: IN VITRO MICRONUCLEUS, Test System: CHINESE HAMSTER V-79-MZ, Metabolic Activation: NONE
  mutagenic call: active; positive
Test System: CHINESE HAMSTER V-79-MZ, Strain/Indicator: V-79 MZ (HPRT)/6-THIOGUANINE, Metabolic Activation: NONE
  mutagenic call: inactive; negative

## Cc1ccc(C)c(NO)c1
[4]
  mutagenic call: active; positive
Test System: AMES SALMONELLA TYPHIMURIUM, Strain/Indicator: TA100, Metabolic Activation: RAT, LIVER, S-9, PCB, Method: PREINCUBATION
  mutagenic call: active; positive
